# According to patent US20260125379A1, “PRODRUG OF JAK KINASE INHIBITOR” (E-nitiate Biopharmaceuticals (Hangzhou) Co., Ltd, priority 2022, published 2026):
# pIC50: −log10 of the molar value. Where two headings read alike, the source gives them in different places.
# Tests used:
# [1] = Plasma pharmacokinetics in rats after single gavage; assay type: in vivo; conditions: SD rats; for Cmax / Tmax / AUC0-t / Cmax (ng · mL^−1): plasma; for presence of the prodrug in plasma (in words): after gavage of the prodrug itself
# Procedure: (§1) Compounds A1, A2, A3, B3, B6 and B3 were administered once to SD rats by gavage. The concentrations of medicaments and metabolites thereof in plasma were collected and measured at different time points, and the pharmacokinetic parameters of each compound were calculated to study the pharmacokinetic characteristics of the compounds in plasma of SD rats. Fecal samples at 8 and 24 hours were collected simultaneously, and the concentrations of prodrugs and degraded products were detected to investigate the excretion recovery rate.
# (§2) Rats were grouped in groups of 3, and all SD rats were fasted overnight (12 hours or more) the day before the experiment. On the day of the experiment, after weighing the body weight, the rats were administrated once with compound A1, A2, A3, B3, B6, and B3 by gavage respectively. SD rats were able to resume eating 4 hours after administration and were able to drink freely during the experiment. 0.20 mL of blood was collected from the jugular vein before administration and at 0.5, 1, 2, 4, 8, 12, and 24 hours after administration, respectively, and was placed in EDTA-K2 anticoagulation tube. All whole blood samples were centrifuged at 1500 g to 1600 g for 10 minutes within half an hour after collection to separate plasma, which was stored in a refrigerator at a temperature of between −90° C. and −60° C. for sample analysis. All the feces from the metabolic cage chassis were collected at 24 h after administration and weighed accurately. The required volume of homogenate liquid (aqueous solution containing 20% methanol) was added at a weight/volume ratio of 1:10, and the resultant was homogenized and analyzed.
# [2] = Fecal excretion (cumulative recovery) in rats after single gavage; assay type: in vivo; conditions: feces, SD rats
# Procedure: as §1, §2
# JAK1 = JAK1 (Homo sapiens, UniProt P23458); experiment: JAK1 kinase inhibition assay (ULight-JAK-1 substrate, Eu-labeled anti-phosphotyrosine antibody); assay type: biochemical; conditions: JAK1 10 nM, substrate 50 nM, ATP 40 μM, 2 hours at room temperature
# JAK1, sequence (P23458 whole entry, species assumed): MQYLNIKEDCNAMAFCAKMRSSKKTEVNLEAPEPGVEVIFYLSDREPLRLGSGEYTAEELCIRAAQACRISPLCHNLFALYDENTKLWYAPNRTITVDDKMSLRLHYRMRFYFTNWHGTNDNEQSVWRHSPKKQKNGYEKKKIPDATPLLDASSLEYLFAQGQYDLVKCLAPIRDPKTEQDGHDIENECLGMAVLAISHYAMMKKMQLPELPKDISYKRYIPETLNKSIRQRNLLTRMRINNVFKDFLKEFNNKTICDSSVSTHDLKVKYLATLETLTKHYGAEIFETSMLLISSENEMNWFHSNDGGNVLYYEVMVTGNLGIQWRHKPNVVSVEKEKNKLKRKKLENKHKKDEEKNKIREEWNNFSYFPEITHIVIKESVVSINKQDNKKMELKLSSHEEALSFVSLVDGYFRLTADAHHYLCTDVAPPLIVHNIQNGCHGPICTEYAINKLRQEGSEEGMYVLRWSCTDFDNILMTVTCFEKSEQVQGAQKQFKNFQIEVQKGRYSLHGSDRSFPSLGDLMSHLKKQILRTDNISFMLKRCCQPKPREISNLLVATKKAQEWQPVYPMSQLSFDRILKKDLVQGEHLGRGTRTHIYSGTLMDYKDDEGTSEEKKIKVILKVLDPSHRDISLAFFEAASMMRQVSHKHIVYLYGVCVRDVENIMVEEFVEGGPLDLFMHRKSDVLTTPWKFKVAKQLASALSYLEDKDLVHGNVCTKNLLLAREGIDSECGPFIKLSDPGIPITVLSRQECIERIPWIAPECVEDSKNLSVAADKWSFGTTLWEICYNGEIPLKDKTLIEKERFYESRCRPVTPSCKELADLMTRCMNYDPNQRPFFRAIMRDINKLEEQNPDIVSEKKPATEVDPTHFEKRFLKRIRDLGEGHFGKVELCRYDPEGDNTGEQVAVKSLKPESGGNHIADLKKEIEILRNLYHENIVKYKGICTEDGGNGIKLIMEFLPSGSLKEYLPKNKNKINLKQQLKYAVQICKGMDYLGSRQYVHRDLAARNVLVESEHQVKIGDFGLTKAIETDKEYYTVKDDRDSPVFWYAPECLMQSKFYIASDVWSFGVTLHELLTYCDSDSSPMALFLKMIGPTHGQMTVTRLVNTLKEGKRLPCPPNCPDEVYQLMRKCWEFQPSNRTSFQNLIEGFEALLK
# Procedure: (§3) Example A: Activity Detection of JAK Kinase Small Molecule Inhibitors
# (§4) Kinase reaction buffer was prepared with the following components: 50 mM HEPES, pH 7.5, 1 mM EGTA, 10 mM MgCl2, 2 mM DTT, 0.01% Tween20.
# (§5) Detection buffer was prepared by diluting 10× detection buffer to IX with deionized water in a ratio of 9:1.
# (§6) JAK kinase was diluted with kinase reaction buffer to 4× final concentration (JAK1: 40 nM, JAK2: 0.5 nM).
# (§7) ULight™-JAK-1 (Tyr1023) substrate was diluted with kinase reaction buffer to 200 nM (final concentration: 50 nM).
# (§8) ATP was diluted with kinase reaction buffer to 4× final concentration (JAK1: 160 μM, JAK2: 40 μM).
# (§9) Compound to be tested was dissolved with DMSO to obtain a 10 mM storage solution, which was diluted to desired concentrations by a 3-fold gradient; for each compound 10 concentration points were set, and the final concentration of the compound to be tested ranges from 10 μM to 0.5 nM.
# (§10) EDTA was dissolved with 1× detection buffer to 40 mM (EDTA final concentration: 10 mM).
# (§11) Eu-labeled detection antibody (anti-phosphotyrosine (PT66)) was diluted with 1× detection buffer to 8 nM (final antibody concentration: 2 nM).
# (§12) (1) To a 384-well plate, 2.5 μL 4× kinase solution and 2.5 μL 4× test compound solution with different concentrations that have been diluted were added successively, each concentration was set in duplicate, and an enzyme solution blank control and a negative control (DMSO group) were also set.
# (§13) (2) The 384-well plate was shaken to mix enzyme and compound well, and then centrifuged at 1000 rpm for 1 minute, and incubated at room temperature for 60 minutes.
# (§14) (3) 2.5 μL 4× substrate solution was added to the 384-well plate and centrifuged at 1000 rpm for 1 minute.
# (§15) (4) 2.5 μL 4× ATP solution was added to the 384-well plate and centrifuged at 1000 rpm for 1 minute, and then enzyme reaction was initiated.
# (§16) (5) For JAK1 the reaction was carried out at room temperature for 2 hours, and for JAK2 the reaction was carried out at room temperature for 1 hour.
# (6) For the JAK1 reaction, the final concentrations of components are as follows: JAK1: 10 nM, substrate: 50 nM, ATP: 40 μM; and the final concentration of the tested compounds ranges from 10μ M to 0.5 nM.
# (§17) (7) After the enzyme reaction was completed, 5 μL 4× enzyme reaction termination solution was added to each well of the 384-well plate, and then centrifuged at 1000 rpm for 1 minute and incubated at room temperature for 5 minutes.
# (§18) (8) 5 μL 4× detection antibody solution (the final concentration of detection antibody is 2 nM) was added to each well of the 384-well plate, and then centrifuged at 1000 rpm for 1 minute and incubated at room temperature for 1 hour.
# (§19) (9) At the antibody incubation was completed, signal value of each well was measured on a Envision plate reader.
# (§20) (1) The percentage inhibition rate corresponding to each concentration of the tested compound was calculated on the basis that the blank control of enzyme solution corresponds to 100% and the negative control (DMSO group) corresponds to 0%.
# (§21) (2) A nonlinear regression analysis of the logarithm of the concentration of the detected compound and the corresponding percentage inhibition rate was performed in GraphPad Prism software to obtain the half-inhibiting concentration (IC50) of the tested compound.
# JAK2 = JAK2 (Homo sapiens, UniProt O60674); experiment: JAK2 kinase inhibition assay (ULight-JAK-1 substrate, Eu-labeled anti-phosphotyrosine antibody); assay type: biochemical; conditions: JAK2 0.125 nM, substrate 50 nM, ATP 10 μM, 1 hour at room temperature
# JAK2, sequence (O60674 whole entry, species assumed): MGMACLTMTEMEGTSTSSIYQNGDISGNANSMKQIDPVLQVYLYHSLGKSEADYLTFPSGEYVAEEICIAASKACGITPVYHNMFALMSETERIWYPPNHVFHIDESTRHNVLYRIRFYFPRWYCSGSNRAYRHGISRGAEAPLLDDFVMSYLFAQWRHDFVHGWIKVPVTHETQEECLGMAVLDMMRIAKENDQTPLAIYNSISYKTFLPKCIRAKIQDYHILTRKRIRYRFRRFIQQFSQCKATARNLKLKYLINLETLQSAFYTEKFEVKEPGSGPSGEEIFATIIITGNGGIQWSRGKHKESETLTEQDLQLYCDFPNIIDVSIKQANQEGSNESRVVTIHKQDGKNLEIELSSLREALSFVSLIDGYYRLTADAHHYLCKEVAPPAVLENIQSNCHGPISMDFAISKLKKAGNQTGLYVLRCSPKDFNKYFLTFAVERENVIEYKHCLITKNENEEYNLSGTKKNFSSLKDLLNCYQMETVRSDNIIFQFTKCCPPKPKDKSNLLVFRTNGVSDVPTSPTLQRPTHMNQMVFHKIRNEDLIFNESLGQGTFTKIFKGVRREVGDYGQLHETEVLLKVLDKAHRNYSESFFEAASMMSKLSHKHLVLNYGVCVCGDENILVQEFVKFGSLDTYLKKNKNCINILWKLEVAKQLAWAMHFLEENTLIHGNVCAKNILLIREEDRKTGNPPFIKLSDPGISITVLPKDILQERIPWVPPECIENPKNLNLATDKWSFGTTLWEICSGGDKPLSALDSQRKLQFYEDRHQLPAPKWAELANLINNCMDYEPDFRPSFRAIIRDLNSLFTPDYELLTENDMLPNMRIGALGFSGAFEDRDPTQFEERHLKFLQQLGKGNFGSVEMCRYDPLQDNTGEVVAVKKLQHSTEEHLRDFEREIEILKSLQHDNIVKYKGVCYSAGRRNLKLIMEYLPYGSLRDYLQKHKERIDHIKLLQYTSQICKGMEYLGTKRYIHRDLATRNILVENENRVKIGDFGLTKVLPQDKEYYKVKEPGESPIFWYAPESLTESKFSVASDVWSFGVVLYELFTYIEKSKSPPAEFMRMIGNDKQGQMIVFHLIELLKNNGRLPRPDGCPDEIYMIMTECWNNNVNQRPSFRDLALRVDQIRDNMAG
# Procedure: as §3, §4, §5, §6, §7, §8, §9, §10, §11, §12, §13, §14, §15, §16
# For the JAK2 reaction, the final concentrations of component are as follows: JAK2: 0.125 nM, substrate: 50 nM, ATP: 10 μM; and the final concentration of the tested compound ranges from 10 μM to 0.5 nM.
# as §17, §18, §19, §20, §21
# [3] = Pharmacokinetics in rats in vivo: A13 in plasma and colon tissue after equimolar A3 or A13; conditions: SD rats, A3 30 mg/kg vs A13 15 mg/kg (equal molar) by gavage, FIG. 1
# Procedure: Compounds A3 and A13 were administered once to SD rats by gavage in an equal molar amount relative to the body weight of rats. The concentration of the medicaments and metabolites thereof in plasma and colon tissues were collected and measured at different time points, and the pharmacokinetic parameters of the compounds were calculated to compare the pharmacokinetic characteristics of the prodrug and the active metabolite in SD rats in vivo.
# Rats were grouped in groups of 27, and all SD rats were fasted overnight (12 hours or more) the day before the experiment. On the day of the experiment, after weighing the body weight, the compounds A3 (30 mg/kg) and A13 (15 mg/kg) were administered once by gavage respectively. SD rats were able to resume eating after 4 hours of administration and were able to drink freely during the experiment. Plasma and colonic tissue were collected at 0.5, 1, 2, 4, 6, 8, 12, 24 and 48 hours after the administration to detect the concentration of A13 in the plasma and colon tissue homogenate liquid.
# [4] = administration group Compound A1 50 mg/kg by gavage
# [5] = administration group Compound A2 50 mg/kg by gavage
# [6] = administration group Compound A3 40 mg/kg by gavage
# [7] = rat, po, administration group Compound B6 50 mg/kg by gavage, read-out: Cmax
# [8] = rat, po, administration group Compound B6 50 mg/kg by gavage, read-out: Tmax
# [9] = administration group Compound B6 50 mg/kg by gavage
# [10] = administration group Compound B3 33 mg/kg (equimolar with B6) by gavage
SMILES,"AUC0-t [1, 6]","Cumulative recovery rate at 24 h (%) [2, 4]","Cumulative recovery rate at 24 h (%) [2, 5]","Cumulative recovery rate at 24 h (%) [2, 6]",pIC50 (JAK1),pIC50 (JAK2),presence of the prodrug in plasma (in words) [1],"Cmax [1, 7]","Tmax [1, 8]","Cumulative recovery rate at 24 h (%) [2, 9]",also measured
"C[C@@H](O)c1nc2cnc3[nH]ccc3c2n1N1CCC(CC#N)CC1 [Compound A13, (R)-2-(1-(2-(1-(hydroxyethyl))imidazo[4,5-d]pyrrolo[2,3-b]pyridin-1(6H)-yl)piperidin-4-yl)acetonitrile]",836 ng·h/g,11.6%,24.8%,34.3%,–,–,–,–,–,–,"Cmax [1, 4]: 9.1 ng/mL; Tmax [1, 4]: 12 h; AUC0-t [1, 5]: 972 ng·h/g; Cmax [1, 5]: 80.6 ng/mL; Tmax [1, 5]: 4 h; Cmax [1, 6]: 69.9 ng/mL; Tmax [1, 6]: 12 h"
"C[C@@H](OC(=O)CCc1ccccc1/N=N/c1ccc(O)c(C(=O)O)c1)c1nc2cnc3[nH]ccc3c2n1N1CCC(CC#N)CC1 [Compound A1, (R,E)-5-((2-(3-(1-(1-(4-(cyanomethyl)piperidin-1-yl)-1,6-dihydroimidazo[4,5-d]pyrrolo[2,3-b]pyridin-2-yl)ethoxy)-3-oxopropyl)phenyl)diazenyl)-2-hydroxybenzoic acid]",–,83%,–,–,6.88,6.27,absent or rarely present in plasma,–,–,–,"Cmax (ng · mL^−1) [1, 4]: BLOQ"
"N#CC[C@H]1CC[C@H](n2c(/N=N/c3ccc(O)c(C(=O)O)c3)nc3cnc4[nH]ccc4c32)CC1 [Compound B6, 5-((E)-(1-((1R,4R)-4-(cyanomethyl)cyclohexyl)-1,6-dihydroimidazo[4,5-d]pyrrolo[2,3-b]pyridin-2-yl)diazenyl)-2-hydroxybenzoic acid]",–,–,–,–,9.35,9.09,absent or rarely present in plasma,0.7 ng/mL,4 h,5.1%,blood system absorption (AUC0-t) of the active metabolite B3 after prodrug B6 compared with direct oral equimolar B3 ([1]; B6 50 mg/kg vs B3 33 mg/kg by gavage): significant reduction
"C[C@@H](OC(=O)C(C)(C)Oc1ccccc1/N=N/c1ccc(O)c(C(=O)O)c1)c1nc2cnc3[nH]ccc3c2n1N1CCC(CC#N)CC1 [Compound A3, (R,E)-5-((2-((1-(1-(1-(4-cyanomethylpiperidin-1-yl)-1,6-dihydroimidazo[4,5-d]pyrrolo[2,3-b]pyridin-2-yl)ethoxy)-2-methyl-1-oxopropan-2-yl)oxy)phenyl)diazenyl)-2-hydroxybenzoic acid]",8.92 ng·h/g,–,–,0.78%,8.15,6.99,absent or rarely present in plasma,–,–,–,"amount (AUC) of active metabolite A13 in the colonic tissue after prodrug A3 compared with compound A13 ([3]; colon tissue 0.5-48 hours): more in the colonic tissue; amount (AUC) of active metabolite A13 in the blood after prodrug A3 compared with compound A13 ([3]; plasma 0.5-48 hours): less in the blood; Cmax ([1]; rat, po, administration group Compound A3 40 mg/kg by gavage, read-out: Cmax): 2.08 ng/mL; Tmax ([1]; rat, po, administration group Compound A3 40 mg/kg by gavage, read-out: Tmax): 4 h"
"N#CC[C@H]1CC[C@H](n2c(N)nc3cnc4[nH]ccc4c32)CC1 [Compound B3, 2-((1R,4R)-4-(2-aminoimidazo[4,5-d]pyrrolo[2,3-b]pyridin-1(6H)-ethyl)cyclohexyl)acetonitrile]",–,–,–,–,10.40,9.43,–,4.8 ng/mL,12 h,82.1%,"AUC0-t [1, 10]: 324 ng·h/g; AUC0-t [1, 9]: 69.1 ng·h/g; Cmax ([1]; rat, po, administration group Compound B3 33 mg/kg (equimolar with B6) by gavage, read-out: Cmax): 126 ng/mL; Tmax ([1]; rat, po, administration group Compound B3 33 mg/kg (equimolar with B6) by gavage, read-out: Tmax): 1.2 h; Cumulative recovery rate at 24 h (%) [2, 10]: 71.2%"
"C[C@@H](OC(=O)OCc1ccc(/N=N/c2ccc(O)c(C(=O)O)c2)cc1)c1nc2cnc3[nH]ccc3c2n1N1CCC(CC#N)CC1 [Compound A2, (R,E)-5-((4-((((1-(1-(4-cyanomethylpiperidin-1-yl)-1,6-dihydroimidazo[4,5-d]pyrrolo[2,3-b]pyridin-2-yl)ethoxy)carbonyl)oxy)methyl)phenyl)diazenyl)-2-hydroxybenzoic acid]",–,–,7.2%,–,8.23,7.57,absent or rarely present in plasma,–,–,–,"Cmax (ng · mL^−1) [1, 5]: BLOQ"
